{
  "source": "patent US20060166934A1",
  "about": "“Composition comprising phytosphingosine derivatives for apoptosis induction” (Tae-Yoon Kim, priority 2002, published 2006)",
  "key": {"HaCaT cells [1]": {"system": "HaCaT cells", "assay": "TUNEL assay, induction of apoptosis", "assay_type": "cell-based, human", "settings": "for cell death (TUNEL): 10 μM and 30 μM, 24 hours, FIG. 6; for time after treating at which apoptosis is induced: 30 μM, FIG. 7", "protocol": "Induction of apoptosis of HaCaT cells by the compositions of the present invention is observed in the TUNEL-TdT-mediated dUTP nick end labeling-assay by using in situ cell death detection kit, POD (Enzo, 1684817, Boeringer Mannhein).\nIn the TC chamber (Lab-TEK chamber Slide w/cover Permanox Slide sterile 1 well, 177410), 1×10^6 HaCaT cells are seeded and cultured on the DMEM medium for longer than 18 hours and treated with phytosphingosine derivatives. The cells are fixed 24 hours after treating with drugs, and the endogenous peroxidase is blocked with a blocking solution (3% H2O2 in MeOH), and permeation of cells is increased by using a permeabilization solution (0.1% Triton X-100 in 0.1% sodium citrate). Then apoptotic cells are labeled by using the mixture of tunnel reaction and are colored by using the DAB substrate (DAKO, K3465). Colored cells are observed by using a microscope."}, "[2]": {"assay": "MTT assay, cytotoxicity in human keratinocyte cell line", "assay_type": "cell-based", "settings": "human, Cell viability", "summary_of_the_method": "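HaCaT keratinocytes, 1-2×10^4 cells per well in serum-free medium, treated 24 h with phytosphingosine derivatives (1-100 μM, DMSO vehicle). Viability by MTT (2 mg/ml, 4 h), formazan dissolved in DMSO, O.D. read at 540 nm.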"}, "Th1 cells activation": {"system": "Th1 cells activation", "assay": "Mixed leukocyte reaction (MLR), Th1 cells activation by TNBSO3, MTT assay", "assay_type": "cell-based, mice", "settings": "MLR with TNBSO3-conjugated stimulator cells, FIG. 4", "protocol": "Whether the composition of the present invention has a suppressive effect on the Th1 cells activation which isolate […], IL-12, etc. by reacting with TNBSO3 […] was examined.\nThe mononuclear cells obtained from spleen of mice as described the above 4 were used for responder cells, and TNBSO3-conjugated cells were used for stimulator cells. The stimulator cells were obtained as follows:\nThe mononuclear cells were adjusted to be 2×10^7 cells/ml in PBS and the same volume of 20 mM TNBSO3 was added and incubated at 37° C. for 10 min in the dark state. After incubation, the cells wrer washed three times with PBS.\nEach 2×10^5 responder cells and stimulator cells were mixed with each other and cultured for 5 days on the 96-well plate. And RPMI with 10% of serum was used as a medium.\nThe above cells were cultured for 24 hours in the presence of 1, 10, 50 and 100 μM of NAPS, TAPS, and PS to examine the proliferation of the cells.\nC2-ceramide was used as control."}, "HaCaT cells [3]": {"system": "HaCaT cells", "assay": "Cell cycle by flow cytometric analysis", "assay_type": "cell-based, human", "settings": "FIG. 8", "protocol": "The effects of the compositions of the present invention on the cell cycle are reviewed. In the flow cytometric analysis, the cells are treated with trypsin according to each time interval, collected and washed with PBS. They are fixed by using 80% ethanol, and propidium iodide and RNase are added to them. Thereafter, the cell cycle is analyzed by using a flow cytometer."}, "Chk1": {"system": "Chk1", "assay": "Immunoblot analysis of Chk1", "assay_type": "cell-based, human", "settings": "30 μM, FIGS. 12 and 13", "protocol": "(§1) In the confirmation of apoptosis-related proteins, the immunoblot analysis is performed in order to look into the effects of the compositions of the present invention on the expression of caspase-3, p53, and Chk1 proteins related to the induction of apoptosis. HaCaT cells are cultured on a 100-mm dish and collected at the indicative time. The proteins are extracted by adding 500 μl of RIPA lysis buffer (1% Nonidet P-40, 1% sodium deoxycholate, 0.1% SDS, […], 0.01 M sodium phosphate, pH 7.2, 2 mM EDTA, 50 mM sodium fluoride and 0.2 mM sodium vanadate), and the concentration is measured by using the Bradford method. 1 Extracted proteins is electrophoresed on 12% polyacrylamide gel, and they are transferred to the nitrocellulose membrane. The membrane blocked with 5% non-fat milk is reacted with the primary antibodies (caspase-3, p53, and Chk1), washed, and reacted with the secondary HRP-conjugated antibody. The intensity of proteins is analyzed by using the ECL kit."}, "apoptosis-related genes": {"system": "apoptosis-related genes", "assay": "Apoptosis array kit, gene expression", "assay_type": "cell-based", "settings": "30 μM, 24 hours, FIG. 10", "protocol": "Firstly, in order to look into the genes involved in apoptosis induced by the compositions of the present invention, TAPS is treated at the dose of 30 μM for 24 hours, from which mRNA is isolated. Then it is observed by using an apoptosis array kit.\nThe labeled cDNA is synthesized by using apoptosis-specific primers offered by Human Apoptosis Expression Assay (R&D System, Minneapolis, Minn.), which is used for a probe in incubation with 2 μg of the total RNA at 65° C. overnight. It is then washed with Washing Solution I (0.5×SSPE, 1% (w/v) SDA) three times at a room temperature and with Washing Solution II ([…]) for 1 hour at 65° C. The washed membranes are exposed to X-ray films at […], and developed."}, "p53": {"system": "p53", "assay": "Immunoblot analysis of p53", "assay_type": "cell-based, human", "settings": "30 μM, FIG. 12", "protocol": "as §1"}},
  "data": [
    {"compound": "CCCCCCCCCCCCCC[C@@H](O)[C@@H](O)[C@H](CO)NC(C)=O", "note": "[NAPS, N-acetyl phytosphingosine]", "values": [
      {"measurement": "cell death (TUNEL)", "setting": "HaCaT cells [1]", "result": "most significant effect of cell death"},
      {"measurement": "time after treating at which apoptosis is induced", "setting": "HaCaT cells [1]", "result": 4, "unit": "h"},
      {"measurement": "viability at 24 h, 1 µM", "setting": "[2]", "result": "103 ± 6.9", "unit": "%"},
      {"measurement": "viability at 24 h, 3 µM", "setting": "[2]", "result": "99 ± 3.5", "unit": "%"},
      {"measurement": "viability at 24 h, 10 µM", "setting": "[2]", "result": "86 ± 2.1", "unit": "%"},
      {"measurement": "viability at 24 h, 30 µM", "setting": "[2]", "result": "17 ± 0.8", "unit": "%"},
      {"measurement": "concentration showing a suppressive effect on Th1 cells activation", "setting": "Th1 cells activation", "result": 50, "unit": "µM"}
    ]},
    {"compound": "tetraacetyl phytosphingosine [TAPS]", "values": [
      {"measurement": "G2/M phase", "setting": "HaCaT cells [3]; thereafter up to 24 hours", "result": "reduced continuously"},
      {"measurement": "sub G1 phase (apoptotic cells)", "setting": "HaCaT cells [3]; thereafter up to 24 hours", "result": "increased relatively"},
      {"measurement": "G2/M phase", "setting": "HaCaT cells [3]; up to 12 hours after treating", "result": "increased relatively"},
      {"measurement": "S phase", "setting": "HaCaT cells [3]; up to 12 hours after treating", "result": "reduced"},
      {"measurement": "Chk1 protein", "setting": "Chk1; at 8-hour", "result": "not changed greatly"},
      {"measurement": "Chk1 protein", "setting": "Chk1; at 24 hour", "result": "rapid reduction"},
      {"measurement": "cell death (TUNEL)", "setting": "HaCaT cells [1]", "result": "most significant effect of cell death"},
      {"measurement": "time after treating at which apoptosis is induced", "setting": "HaCaT cells [1]", "result": 4, "unit": "h"},
      {"measurement": "expression of Bcl-10", "setting": "apoptosis-related genes", "result": "increased"},
      {"measurement": "expression of COX-2 gene", "setting": "apoptosis-related genes", "result": "increased"},
      {"measurement": "expression of IL-1β", "setting": "apoptosis-related genes", "result": "increased"},
      {"measurement": "expression of Mcl-1", "setting": "apoptosis-related genes", "result": "increased"},
      {"measurement": "expression of PIN gene", "setting": "apoptosis-related genes", "result": "increased"},
      {"measurement": "expression of p21", "setting": "apoptosis-related genes", "result": "increased"},
      {"measurement": "expression of p53 gene", "setting": "apoptosis-related genes", "result": "decreased"},
      {"measurement": "expression of survivin", "setting": "apoptosis-related genes", "result": "reduced"},
      {"measurement": "concentration showing a suppressive effect on Th1 cells activation", "setting": "Th1 cells activation", "result": 10, "unit": "µM"},
      {"measurement": "p53 protein", "setting": "p53; at 8-hour", "result": "not changed greatly"},
      {"measurement": "p53 protein", "setting": "p53; at 24 hour", "result": "rapid reduction"}
    ]}
  ]
}
